Laboratory results from patent US20160122307A1, “PERHYDROQUINOXALINE DERIVATIVES” (DR. AUGUST WOLFF GMBH & CO. KG ARZNEIMITTEL, priority 2013, published 2016).
Read-outs that look alike come from different tables or passages of the source.

Columns and labels:
[1] = target: T1, Human opiate κ receptors (Homo sapiens, UniProt P41145); format: binding; parameters: expressed in transfected cells; host or cells: HEK-293 cell membranes
[2] = test system: arachidonic acid-induced ear inflammation; format: in vivo, mice
[3] = target: T1, Human opiate κ receptors; test: κ opioid receptor functional assay, [35S]GTPγS binding (assay C); format: biochemical; settings: for EC50: read-out: GTPγS EC50; for activation at 1 µM: 0.5 h, read-out: % activation functional assay at 1 μM
[4] = test system: vasculitis; test: Vasculitis model in mice, LPS/TNF-α (assay I); format: in vivo, C57BL/6 mice; settings: dose dependent
Description: I. Vasculitis Model in Mice
C57BL/6 mice receive an intradermal injection of LPS. On the following day vasculitis is induced by intradermal injection of TNF-α. In addition Evan's blue is injected. 24 hours following the injection of TNF-α mice are scarified. Ear thickness is measured and the degree of vasculitis is assessed by counting petechiae. The content of Evan's blue in the ear tissue is a marker for vascular permeability. Ears are analyzed by histology, FACS and RT-qPCR.

[5] = test system: chronic oxazolone-induced ear inflammation; test: In vivo model of chronic oxazolone-induced ear inflammation (assay E); parameters: species or system mice
Description: E. In Vivo Model of Chronic Oxazolone-Induced Ear Inflammation
Mice are challenged several times with oxazolone following an initial sensitization. Ear thickness is measured daily during the treatment period with topical application of the test compound (see e.g. Ottosen E. R. J. Med. Chem. 2003; 46: 5651-5662). At the end of the study ear weight is determined Ears are characterized histologically and by immunofluorescence. Gene expression was quantified (RT-qPCR).

[6] = test system: DSS-induced colitis; test: DSS-induced colitis in mice (assay K); format: in vivo, C57BL/6 mice
Description: K. DSS-Induced Colitis in Mice
Colitis is induced by treatment of C57BL/6 mice with 2.5% dextran sulfate (DSS) in the drinking water for 7 days. Mice are treated with the test item. Weight is monitored daily. At day 8 mice are scarified. A haemocult test is performed. The size of the colon is measured. Colitis is determined using a scoring system in H&E stains.

[7] = test system: oxazolone delayed type hypersensitivity reaction; test: In vivo model for pruritus associated with the oxazolone model of a delayed type hypersensitivity reaction (assay D); parameters: species or system mice
Description: D. In Vivo Model for Pruritus Associated with the Oxazolone Model of a Delayed Type Hypersensitivity Reaction
Scratching activity in mice is measured after topical application of the test compound.

[8] = test system: Imiquimod-induced psoriasis; test: Imiquimod-induced psoriasis in mice (assay J); format: in vivo, Balb/c mice; settings: s.c. or i.v.
Description: J. Imiquimod-Induced Psoriasis in Mice
Psoriasis in Balb/c mice is induced by daily application of topical Imiquimod for 8 days. Animal are treated with the test items (topical or systemically). Scratching was monitored. On day 9 the skin phenotype is characterized. Skin is analyzed histologically. Lymph nodes are analyzed by flow cytometry and RT-qPCR.

[9] = test system: UVB-induced inflammatory pain; test: UVB-induced inflammatory pain in rats (assay H); format: in vivo, Sprague-Dawley rats; settings: s.c.
Description: H. UVB-Induced Inflammatory Pain In Rats
Male, Sprague-Dawley rats receive a single exposure of UVB radiation to the left hind paw. Mechanical hyperalgesia is assessed using a digital Randall-Selitto device (dRS). Thermal hyperalgesia is measured using a plantar test apparatus (see e.g. Davies S. L. J. Neurosci. Methods 2005; 148:161-166, Bishop T. Pain 2007; 131:70-82 and Graham I. J. Invest. Dermatol. 2004; 122:183-189).

[10] = test system: acetic acid-induced writhing; test: Acetic acid-induced writhing assay in mice (assay G); format: in vivo; settings: s.c.
Description: G. Acetic Acid-Induced Writhing Assay in Mice
Analgesic activity against visceral or chemical pain is assessed by application of the test compound prior to application of an i.p. injection of acetic acid. The number of writhing responses that occur in response to acetic acid are counted (see e.g. Barber A. Med. Res. Rev. 1992; 12:525-62 and Ramabadran K. Pharm. Res. 1986,3:263-270).

[11] = test system: chloroquine-induced scratching; test: Effects on chloroquine-induced scratching (assay L); format: in vivo; settings: intrathecal injection, mice
Description: L. Effects on Chloroquine-Induced Scratching
Compounds are intrathecally injected in a volume of 5 μl, 10 min before the i.d. injection of chloroquine (100 μg/10 μl) in the rostral back. Following the i.d. cheek injection, mice are placed in an arena with a clear glass floor and videotaped from beneath for 30 min. Videotapes are reviewed by blinded investigators, who count the number of hindlimb scratch bouts.

[12] = topical, versus vehicle control

T1 sequence (P41145 whole entry): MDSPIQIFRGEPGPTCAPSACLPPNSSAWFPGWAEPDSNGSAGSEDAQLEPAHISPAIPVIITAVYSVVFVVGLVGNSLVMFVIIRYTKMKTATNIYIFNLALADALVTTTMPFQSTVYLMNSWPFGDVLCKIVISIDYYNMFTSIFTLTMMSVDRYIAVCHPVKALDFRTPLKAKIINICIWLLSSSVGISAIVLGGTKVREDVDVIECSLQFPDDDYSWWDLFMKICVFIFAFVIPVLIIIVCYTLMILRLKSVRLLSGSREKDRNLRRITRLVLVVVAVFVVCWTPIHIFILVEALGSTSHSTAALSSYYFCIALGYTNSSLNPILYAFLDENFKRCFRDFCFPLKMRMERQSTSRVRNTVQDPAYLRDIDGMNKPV

Row | Compound | % binding at 100 nM [1] [%] | increase in ear thickness [2, 12] | % activation functional assay at 1 μM [3] [%] | EC50 [3] [nM] | activation at 1 µM [3] [%] | chloroquine-evoked scratching [11] | other results
1 | CNC(=O)C(=O)N1CCN(C(=O)Cc2ccc(Cl)c(Cl)c2)[C@@H]2[C@@H](N3CC[C@H](O)C3)CCC[C@@H]21 [Example 145] | 62 | dose dependently prevented the increase | 103 | 10 to 100 |  |  | 
2 | COC(=O)N1CCN(C(=O)Cc2ccc(Cl)c(Cl)c2)[C@@H]2[C@@H](N3CCCC3)CCC[C@@H]21 [Example 89, (4aR,5S,8aS)-methyl 4-(2-(3,4-dichlorophenyl)acetyl)-5-(pyrrolidin-1-yl)octahydroquinoxaline-1(2H)-carboxylate] |  |  | 100 |  | 107 |  | ear thickness [4]: reduction; inflammatory infiltrate (histology) [4]: reduced inflammatory infiltrate; number of petechiae [4]: reduced number; inflammatory infiltrate (CD117+ mast cells and Gr-1+ neutrophils) ([5]; immunohistochemistry): dose dependent reduction; ear thickness ([5]; mice, topical, compared to vehicle control): dose dependent decreased; epidermal thickness, inflammatory infiltrate and epidermal oedema (histology) ([5]; semi-quantitative analysis): reduction; weight loss ([6]; compared to vehicle control): decreased weight loss; reduction in colon size induced by DSS ([6]; mouse, in vivo): normalized; increase in ear thickness ([2]; mouse, in vivo, sc): prevented the increase; scratching activity ([2]; mouse, in vivo, sc): significantly reduced; number of scratch events ([7]; mice, topical): significantly reduced; ear thickness ([7]; mice, topical, compared to vehicle treated animals): accelerated decrease; epidermal thickness, inflammatory infiltrate and epidermal oedema (histology) ([7]; semi-quantitative analysis): reduction; scratch numbers [8]: lower; size of the rete ridges ([8]; compared to vehicle control): decreased size; thermal hyperalgesia [9]: significant, dose dependent reduction; number of writhing responses [10]: significant, dose dependent reduction
3 | COC(=O)c1ccc(C(=O)N2CCN(C(=O)Cc3ccc(Cl)c(Cl)c3)[C@@H]3[C@@H](N4CCCC4)CCC[C@@H]32)cc1.Cl [Example 114] |  | dose dependently prevented the increase | 93 | 10 to 100 |  | significantly inhibited | 
4 | COC(=O)c1ccc(C(=O)N2CCN(C(=O)Cc3ccc(Cl)c(Cl)c3)C3C(N4CCCC4)CCCC32)cc1 (racemic) [Example 81] |  | dose dependently prevented the increase |  |  | 102 | significantly inhibited | 
5 | CS(=O)(=O)N1CCN(C(=O)Cc2ccc(F)c(Cl)c2)C2C(N3CCC(O)C3)CCCC21.Cl (stereo not shown) [Example 125] | 80 | dose dependently prevented the increase | 99 | < 10 |  |  | 
6 | CNC(=O)C(=O)N1CCN(C(=O)Cc2ccc(Cl)c(Cl)c2)[C@@H]2[C@@H](N3CCCC3)CCC[C@@H]21.Cl [Example 118] |  | dose dependently prevented the increase | 104 | < 10 |  |  | 
